Results taken from ChEMBL document CHEMBL4823311, “Optimization of Naphthyridones into Selective TATA-Binding Protein Associated Factor 1 (TAF1) Bromodomain Inhibitors” (ACS Med Chem Lett, 2021).

Key:
[1] = molecular target: T1, ATPase family AAA domain-containing protein 2 (Homo sapiens) (UniProt Q6PL18); assay: Inhibition of human partial length ATAD2 (Q981 to R1108 residues) expressed in bacterial expression system at 10 uM measured by BROMOscan assay
T1 sequence (whole entry): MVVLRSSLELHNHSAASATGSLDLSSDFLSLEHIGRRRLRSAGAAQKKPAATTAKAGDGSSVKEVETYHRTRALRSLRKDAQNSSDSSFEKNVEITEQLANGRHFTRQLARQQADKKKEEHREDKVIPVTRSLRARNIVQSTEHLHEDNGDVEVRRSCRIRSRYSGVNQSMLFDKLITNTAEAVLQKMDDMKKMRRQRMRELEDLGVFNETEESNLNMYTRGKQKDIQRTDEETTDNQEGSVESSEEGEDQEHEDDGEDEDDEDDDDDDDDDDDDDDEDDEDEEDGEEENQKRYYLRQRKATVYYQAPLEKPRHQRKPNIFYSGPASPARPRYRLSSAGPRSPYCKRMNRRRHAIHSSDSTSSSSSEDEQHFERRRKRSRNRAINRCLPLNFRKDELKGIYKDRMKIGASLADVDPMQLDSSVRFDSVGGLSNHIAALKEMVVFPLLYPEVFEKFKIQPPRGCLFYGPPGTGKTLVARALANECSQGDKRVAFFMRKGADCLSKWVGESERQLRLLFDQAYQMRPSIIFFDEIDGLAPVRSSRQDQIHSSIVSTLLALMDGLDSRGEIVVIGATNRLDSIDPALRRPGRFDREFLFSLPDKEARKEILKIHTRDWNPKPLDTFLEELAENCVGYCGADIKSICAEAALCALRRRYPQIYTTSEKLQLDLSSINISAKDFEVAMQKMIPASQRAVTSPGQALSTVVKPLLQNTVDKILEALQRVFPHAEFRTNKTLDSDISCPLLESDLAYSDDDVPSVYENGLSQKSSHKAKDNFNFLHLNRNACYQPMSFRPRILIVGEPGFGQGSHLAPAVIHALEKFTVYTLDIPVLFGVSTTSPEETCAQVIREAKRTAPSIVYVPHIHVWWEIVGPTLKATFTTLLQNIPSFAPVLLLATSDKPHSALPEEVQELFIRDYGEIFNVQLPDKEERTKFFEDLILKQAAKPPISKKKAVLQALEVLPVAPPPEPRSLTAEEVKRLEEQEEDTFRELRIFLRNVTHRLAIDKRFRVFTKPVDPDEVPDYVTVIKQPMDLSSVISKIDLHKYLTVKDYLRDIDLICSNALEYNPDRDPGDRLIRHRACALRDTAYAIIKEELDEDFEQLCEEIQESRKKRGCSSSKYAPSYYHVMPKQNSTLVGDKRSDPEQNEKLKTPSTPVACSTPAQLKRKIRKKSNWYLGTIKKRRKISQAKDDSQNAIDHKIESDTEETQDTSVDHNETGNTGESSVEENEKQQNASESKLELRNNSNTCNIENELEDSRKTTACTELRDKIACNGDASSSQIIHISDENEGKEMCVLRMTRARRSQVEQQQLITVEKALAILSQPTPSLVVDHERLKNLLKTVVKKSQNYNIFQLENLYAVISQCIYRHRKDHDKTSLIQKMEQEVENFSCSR

[2] = Passive permeability of the compound across artificial membrane by AMP assay; type: ADME; settings: PAMPA; read-out: permeability
[3] = molecular target: Bromodomain-containing protein 4 (Homo sapiens, UniProt O60885); assay: Inhibition of human partial length BRD4 BD1 (N44 to E168 residues) expressed in bacterial expression system by BROMOscan assay
[4] = Intrinsic clearance in human microsomes; type: ADME, Microsome
Peregrin = molecular target: T2, Peregrin (Homo sapiens, UniProt P55201); assay: Inhibition of human partial length BRPF1 (E627 to G740 residues) expressed in bacterial expression system by BROMOscan assay
T2 sequence (P55201 whole entry): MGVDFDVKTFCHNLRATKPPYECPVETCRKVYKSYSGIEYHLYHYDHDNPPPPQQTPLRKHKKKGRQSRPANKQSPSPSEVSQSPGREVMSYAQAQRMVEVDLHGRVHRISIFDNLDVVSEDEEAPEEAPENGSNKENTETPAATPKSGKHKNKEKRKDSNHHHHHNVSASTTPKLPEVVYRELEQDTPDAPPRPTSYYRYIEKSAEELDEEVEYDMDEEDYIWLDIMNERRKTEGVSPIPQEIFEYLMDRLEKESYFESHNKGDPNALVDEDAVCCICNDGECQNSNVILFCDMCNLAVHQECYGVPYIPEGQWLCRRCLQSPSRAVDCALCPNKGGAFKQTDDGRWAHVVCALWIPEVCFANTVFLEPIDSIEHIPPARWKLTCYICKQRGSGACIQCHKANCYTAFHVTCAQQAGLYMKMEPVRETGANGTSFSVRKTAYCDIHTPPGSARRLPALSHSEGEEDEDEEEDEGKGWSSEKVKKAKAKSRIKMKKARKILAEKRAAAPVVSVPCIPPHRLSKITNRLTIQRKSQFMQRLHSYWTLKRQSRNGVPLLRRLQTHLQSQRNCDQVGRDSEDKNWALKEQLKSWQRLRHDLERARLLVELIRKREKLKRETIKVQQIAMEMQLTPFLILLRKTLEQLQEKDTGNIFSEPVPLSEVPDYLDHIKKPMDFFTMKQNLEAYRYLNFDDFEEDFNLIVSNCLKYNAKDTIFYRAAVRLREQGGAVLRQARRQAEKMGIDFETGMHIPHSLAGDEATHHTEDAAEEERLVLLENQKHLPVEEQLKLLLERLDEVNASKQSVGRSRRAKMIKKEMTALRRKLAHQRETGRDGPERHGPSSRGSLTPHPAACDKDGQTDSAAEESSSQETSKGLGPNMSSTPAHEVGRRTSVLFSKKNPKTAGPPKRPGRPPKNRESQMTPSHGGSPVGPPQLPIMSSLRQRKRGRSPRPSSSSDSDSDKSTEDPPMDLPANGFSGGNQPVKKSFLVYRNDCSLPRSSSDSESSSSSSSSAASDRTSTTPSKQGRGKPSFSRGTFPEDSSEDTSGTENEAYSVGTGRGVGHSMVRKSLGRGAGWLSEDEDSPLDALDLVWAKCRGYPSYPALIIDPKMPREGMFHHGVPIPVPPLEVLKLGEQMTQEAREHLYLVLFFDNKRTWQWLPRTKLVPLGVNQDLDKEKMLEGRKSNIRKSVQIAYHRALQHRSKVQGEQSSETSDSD

[5] = molecular target: Chromatin remodeling regulator CECR2 (Homo sapiens, UniProt Q9BXF3); assay: Inhibition of human partial length CECR2 (P423 to D543 residues) expressed in bacterial expression system by BROMOscan assay
Chain of Chromatin remodeling regulator CECR2 (Q9BXF3 whole entry, the tested form may be a part): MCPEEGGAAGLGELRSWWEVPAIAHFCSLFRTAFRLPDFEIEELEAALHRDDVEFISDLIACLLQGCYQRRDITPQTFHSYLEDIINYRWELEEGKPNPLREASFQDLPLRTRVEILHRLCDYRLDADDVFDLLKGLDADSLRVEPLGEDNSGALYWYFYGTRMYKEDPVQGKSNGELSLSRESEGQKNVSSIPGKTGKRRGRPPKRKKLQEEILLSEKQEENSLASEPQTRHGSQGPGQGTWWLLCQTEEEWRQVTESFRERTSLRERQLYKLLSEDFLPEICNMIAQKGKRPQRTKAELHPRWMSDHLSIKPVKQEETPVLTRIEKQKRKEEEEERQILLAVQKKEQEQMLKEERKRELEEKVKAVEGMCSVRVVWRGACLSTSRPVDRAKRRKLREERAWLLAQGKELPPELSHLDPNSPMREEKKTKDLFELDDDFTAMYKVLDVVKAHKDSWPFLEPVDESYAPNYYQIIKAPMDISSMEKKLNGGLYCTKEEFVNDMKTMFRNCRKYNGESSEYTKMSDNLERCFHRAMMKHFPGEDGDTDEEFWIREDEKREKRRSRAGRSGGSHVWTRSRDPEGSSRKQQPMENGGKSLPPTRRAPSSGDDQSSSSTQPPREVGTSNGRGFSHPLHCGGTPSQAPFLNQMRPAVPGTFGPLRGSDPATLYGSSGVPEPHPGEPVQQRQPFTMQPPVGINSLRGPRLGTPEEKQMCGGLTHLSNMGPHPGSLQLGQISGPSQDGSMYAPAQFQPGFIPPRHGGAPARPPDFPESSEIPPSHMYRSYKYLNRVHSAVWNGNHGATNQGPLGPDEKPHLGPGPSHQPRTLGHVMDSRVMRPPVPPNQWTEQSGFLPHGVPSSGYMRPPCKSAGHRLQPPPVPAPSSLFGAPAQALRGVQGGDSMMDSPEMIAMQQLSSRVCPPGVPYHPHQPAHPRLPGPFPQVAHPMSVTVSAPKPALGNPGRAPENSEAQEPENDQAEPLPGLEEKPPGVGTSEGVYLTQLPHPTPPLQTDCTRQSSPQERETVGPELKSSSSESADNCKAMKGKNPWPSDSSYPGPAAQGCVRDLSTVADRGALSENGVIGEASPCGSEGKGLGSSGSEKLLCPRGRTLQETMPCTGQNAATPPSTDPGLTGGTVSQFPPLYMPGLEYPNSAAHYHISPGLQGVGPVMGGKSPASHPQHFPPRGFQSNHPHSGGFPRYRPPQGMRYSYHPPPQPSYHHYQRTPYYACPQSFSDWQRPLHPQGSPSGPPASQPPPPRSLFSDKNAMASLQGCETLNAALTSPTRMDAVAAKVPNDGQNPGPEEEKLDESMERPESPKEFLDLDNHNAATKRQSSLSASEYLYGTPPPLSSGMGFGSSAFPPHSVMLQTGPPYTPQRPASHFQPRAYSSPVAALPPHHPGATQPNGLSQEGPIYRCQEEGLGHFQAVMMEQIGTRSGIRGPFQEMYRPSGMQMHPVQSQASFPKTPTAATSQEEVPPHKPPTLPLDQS

- inhibition [1]: 24%
- Papp [2]: 6.2 ×10⁻⁶ cm/s
- Ki [3]: > 5.01 µM
- CLint scaled [4]: 20.4 mL/min/kg
- Ki (Peregrin): 5.01 µM
- Ki [5]: 1 µM
SMILES: Cc1cc2c(C3=CCOCC3)cnc(NC3CCN(C(=O)C(F)(F)CN)CC3)c2[nH]c1=O
